Structures are written as SMILES. Where a name gives a salt, the structure may show the parent alone. A value given as a limit tells only on which side of the number the result lay.

The first assay deals with tonic seizures induced by N-methyl-DL-aspartic acid (NMDLA) in male Swiss-Webster mice. Nature of the assay: Antagonism of NMDLA-induced tonic seizures in mice. The format is in vivo, mouse (Swiss-Webster). Conditions: iv; mouse, i.v. test compound 15 min before s.c. NMDLA 500 mg/kg; observed 30 min; probit analysis. The protocol: Compounds of the invention were examined for their ability to antagonise tonic seizures induced by N-methyl-DL-aspartic acid (NMDLA). Groups of 8 male Swiss-Webster mice (25 to 30 g) were injected intravenously with the test compound at various doses, 15 min before s.c. administration of NMDLA (500 mg/kg). […] ED50 values for the antagonism of the NMDLA induced tonic seizures were determined using probit analysis.
In general, ED50 refers to the midpoint of the dose-response relation. Low values mean an effect at a small dose, high ones a need for a large dose. `CC12Cc3ccccc3CC(N1)c1ccccc12` (stereo not drawn) [Example 1, 6-Methyl-5,6,11,12-tetrahydrodibenzo[a,e]cycloocten-6,11-imine Hydrochloride]: the ED50 is < 5 mg/kg. Still for that read-out and setting: in the case of `CC12Cc3ccc(Br)cc3CC(N1)c1ccccc12` (stereo not drawn) [Example 3, 2-Bromo-6-methyl-5,6,11,12-tetrahydrodibenzo[a,e]cycloocten-6.11-imine hydrochloride] it was < 5 mg/kg. Same read-out and setting: under `CC12Cc3ccccc3CC(O)(N1)c1ccccc12` (stereo not drawn) [Example 15, 11-Hydroxy-6-methyl-5,6,11,12-tetrahydrodibenzo[a,e]cycloocten-6,11-imine hydrochloride] stands < 5 mg/kg. Take `CC12Cc3ccccc3CC(C)(N1)c1ccccc12` [Example 16, 6,11-Dimethyl-5,6,11,12-tetrahydrodibenzo[a,e]cycloocten-6,11-imine hydrochloride]: the ED50 is < 5 mg/kg.

Another assay relates to responses to NMDA in rat cortical slice. Nature of the assay: Rat cortical slice: antagonism of responses to NMDA. Type of assay: cell-based. The conditions noted are these: from righthand shift in NMDA concentration-response curve, read-out: apparent equilibrium constant (Kb). The procedure:
The effects of compounds of the invention on responses to NMDA were assessed using the rat cortical slice as described by Wong et al., Proc. Natl. Acad. Sci. USA, 1986, 83, 7104. The apparent equilibrium constant (Kb) was calculated from the righthand shift in the NMDA concentration-response curve produced by the compound under test.
By Kb is commonly meant the affinity of an antagonist, worked out from how it opposes an agonist. As to `COc1ccc2c(c1)CC1NC(C)(C2)c2ccccc21` (stereo not drawn) [Example 12, 2-Methoxy-6-methyl-5,6,11,12-tetrahydrodibenzo [a,e]cycloocten-6,11-imine hydrochloride], the Kb was < 2000 nM. The same measure, in the same setting: under `CC12Cc3ccc(O)cc3CC(N1)c1ccccc12` (stereo not drawn) [Example 13, 2-Hvdroxy-6-methyl-5,6,11,12-tetrahydrodibenzo[a,e]cycloocten-6.11-imine hydrochloride] stands < 2000 nM.

For the origin of these results see US4927819A, “Cyclo-octane neuroprotective agents” (Merck Sharp & Dohme Limited, priority 1987, dated 1990).
